# Source: publication PMC10933920, “Synthesis and Anti-Inflammatory Activity of Ferulic Acid-Sesquiterpene Lactone Hybrids” (Molecules, 2024)
# “Also recorded” adds a separate entry of the source.
# How the values were obtained:
# [1] = Aqueous solubility measurement; format: physicochemical; conditions: for solubility: thermodynamic from solid, deionized water, pH = 7.0, at least in duplicate, read-out: Aqueous Solubility IC50; for water solubility (in words): pH 7.0
# Method: PTL, MCL and compounds 1–6 (0.1, 1, 10 mg) were dissolved in deionized water (pH = 7.0) until the solution was clear. The assays were measured at least in duplicate.
# [2] = tested on: LPS-induced expression of IL-1β, IL-6 and iNOS in RAW264.7 cells; test: qRT-PCR of pro-inflammatory cytokine gene expression after LPS stimulation; format: cell-based, Mouse; conditions: RAW264.7 cells pre-treated 2 h, LPS 1 μg/mL 6 h, RT-PCR, 2 μM
# From the text: Inflammatory factors, including TNF-α, IL-1β, and IL-6, are involved in and accelerate inflammatory responses during inflammatory progression. In addition, iNOS (Nitric oxide synthase)-derived monocytes contribute to macrophage recruitment in the lung, and pulmonary-derived iNOS is detrimental during acute lung injury. Moreover, observations indicate that inhibiting iNOS can reduce inflammation in the early stages of the bleomycin model of acute lung injury. Therefore, the effective suppression of inflammation is considered an effective marker for the treatment of inflammation. To establish the efficacy of those compounds suppressing inflammatory procession, we tested pro-inflammatory cytokines that are released from the RAW264.7 cells upon LPS stimulation.
# Total RNA was isolated using TRIzol reagent (Takara, Ōtsu-shi, Japan) and then transcribed into cDNA using a transcriptor cDNA synthesis kit (TransGen Biotech, Beijing, China) according to the manufacturer’s instructions. Quantitative real-time PCR was performed with TransStart® Green qPCR SuperMix (TransGen Biotech, China). The conditions for the real-time PCR reaction were as follows: 94 °C, 30 s; 94 °C, 5 s; 60 °C, 30 s; 40 cycles. The primers for this research are listed in Supplementary Material Table S1.
# Figure 2 Anti-inflammation of 1–6 in RAW264.7 Cells. Expression of proinflammatory cytokines in RAW264.7 cells use RT-PCR. Cells (1 × 10^6 cells/well) were seeded into 6-well plates and then pro-treated with 1–6 for 2 h. Cells were then challenged with LPS (1 μg/mL) or medium alone for 6 h and Total RNA was extracted from cells with Trizol reagent. TNF-α: tumor necrosis factor-α; IL-1β:Interleukin-1β; L-6: Interleukin-6. Data were analyzed by One-Way ANOVA. *: p < 0.05; **: p < 0.01. ns: no significance.
# RAW264.7 cells = test: CCK-8 cell viability (cytotoxicity) assay; format: cell-based, Mouse; conditions: for IC50: RAW264.7 cells, CCK-8, 24 h incubation, means of three independent experiments
# Method: CCK-8 Cell Proliferation was used to confirm the non-cytotoxic dose of those derivatives in RAW264.7 cells. However, IC50 values of those compounds show visible difference in vitro (Table 1). Considering the safety of compound 6 in RAW264.7 cells, a follow-up experiment was carried out at the concentration of 2 μM.
# The toxicity of those compounds was determined by the CCK-8 assay. RAW264.7 cells were seeded in a 96-well plate at a density of 2 × 10^5/mL and a volume of 100 μL/well. After incubation for 12 h at 37 °C, the cells were then incubated with compounds at concentrations of 1.25, 2.5, 5, 10, 20, 40 and 80 μM for 24 h, followed by the addition of 10 μL CCK-8 solution to each well, and the plates were further incubated for 2 h at 37 °C. The absorbance at a wavelength of 450 nm was measured using a microplate reader (Bio-Rad Laboratories, Inc., Hercules, CA, USA).
# [3] = set-up: method as in PMID 30208745; conditions: cited from earlier work
# [4] = Release of prodrug into active drug in HEPES buffer; format: physicochemical; conditions: HEPES buffer pH 7.4, 37 °C, HPLC; read-out: T1/2 (conversion of prodrug 6 into compound 3) (converted)
# Method: The Michael addition reaction has emerged as an effective synthetic strategy to improve the water solubility and pharmaceutical efficacy of active drug compounds [34]. […] In addition, the use of Michael addition products can also serve to modulate the release rate of active drugs, thereby enabling better control over the pharmacological effects of such compounds. Thus, the experiment of converting the prodrug compound (6) into compound (3) was evaluated in a HEPES buffer solution with a pH of 7.4. Compound 6 rapidly releases compound 3 under these conditions. (Figure 6, T1/2 = 2 h).
# A total of 10 mg of compound 6 was dissolved in 10 mL MeCN. A 0.5 mL volume of compound 6 solution was placed in 49.5 mL of HEPES at pH 7.4. The tubes were then incubated in a bath incubator at 37 °C. Samples were removed after 10 s, and the concentration of compound 6 and 3 was analyzed by HPLC.
# Figure 6 The stability of compound 6 in pH7.4 HEPES buffer.
# [5] = tested on: TNF-α and IL-6 release from LPS-stimulated RAW264.7 cells; test: ELISA of pro-inflammatory cytokine protein levels in culture supernatant; format: cell-based, Mouse; conditions: RAW264.7 cells pre-treated 6 h, LPS 24 h
# [6] = tested on: BLM-induced acute lung injury in C57BL/6J mice; test: Bleomycin-induced acute lung injury model; format: in vivo; conditions: compound 6 10 mg/kg i.p. daily for 14 days
# Method: To further confirm the anti-inflammation effect of compound 6 in vivo, we made the acute-lung-injury model in C57/6j mice using bleomycin. […] To further investigate the protective effect of 6 by BLM-induced ALI, the pathological changes in lung tissues were studied (Figure 5).
# C57BL/6J mice (male) were purchased from Vital River Laboratories (Beijing, China). All procedures were conducted according to the Nankai University Guidelines on Animal Care, and the experimental protocol was approved by the Institutional Animal Protection Committee of the Nankai University (Tianjing, China, NO. 2022-SYDWLL-000342). Animals were sheltered under standard conditions with food and water provided ad libitum. Experiments were conducted on 8-week-old male mice, randomly divided into 4 groups: Control (Con), ALI (bleomycin), Dex (dexamethasone) and compound 6. For bleomycin-induced lung injury, mice were sedated, and a single dose of intratracheal bleomycin (4 mg/kg; Selleckchem, Houston, TX, USA) in sterile PBS. 6 was administered daily for 14 days via intraperitoneal injections (i.p) (100 μL/mouse of […] 6 in PBS). Dexamethasone (2 mg/kg) was administered orally. The mice were monitored and their weight was measured daily. After 14 days, the mice were killed with anesthetic overdose and exsanguinated by cutting the abdominal aorta before the collection of lungs.
# Body weight variations were calculated from the measured weights at each time point (days 1–14), including before the sacrifice of the mice reaching the endpoints. To avoid a potential bias by studying the animals with the better outcomes, animals reaching endpoints were included in the calculation of the weight variation and survival rates.
# Figure 4 Effect of compound 6 on body weight and survival after bleomycin-induced acute lung injury in mice. After bleomycin (4 mg/kg, 25 μL), mice were treated (i.p) daily with compound 6 (10 mg/kg, 100 μL) for 14 days. Body weight variations ((A), n = 12) and percentage (%) of mouse survival ((B), n = 5–12) were compared between the four groups. (Values are means ± SEM, ** p < 0.01). […]
Compound,solubility [1] [µg/mL],"gene expression of pro-inflammatory cytokines (IL-1β, IL-6, iNOS) [2]","IC50 (RAW264.7 cells; Mus musculus, RAW264.7, 24 h) [µM]",further results
"COc1cc(/C=C/C(=O)O)ccc1O [FA, Ferulic acid]",,,> 100,
C/C1=C\CC[C@@]2(C)O[C@@H]2[C@H]2OC(=O)[C@H](CN(C)C)[C@@H]2CC1 [DMAPT],,,,solubility relative to parent compound parthenolide [3]: more than 1000 times
"COc1cc(/C=C/C(=O)O[C@]2(C)CCC3=C(C)CC[C@@H]4[C@H](OC(=O)[C@H]4CN(C)C)[C@H]32)ccc1O [Compound 2, (3R,3aS,9R,9aS,9bS)-3-((dimethylamino)methyl)-6,9-dimethyl-2-oxo-2,3,3a,4,5,7,8,9,9a,9b-decahydroazuleno[4,5-b]furan-9-yl (E)-3-(4-hydroxy-3-methoxyphenyl)acrylate]",< 10,decreased activity compared with compound 1,,IC50 (RAW264.7 cells): 19.6 ± 0.21 µM
"C=C1C(=O)O[C@@H]2C3C(=C(C)CC[C@@H]12)CC[C@@]3(C)OC(=O)/C=C/c1ccc(O)c(OC)c1 (stereo partly drawn) [Compound 1, (3aS,9R,9bS)-6,9-dimethyl-3-methylene-2-oxo-2,3,3a,4,5,7,8,9,9a,9b-decahydroazuleno[4,5-b]furan-9-yl (E)-3-(4-hydroxy-3-methoxyphenyl)acrylate]",< 10,"reduce the gene expression levels of IL-1β, IL-6 and iNOS significantly; also recorded: comparable activities",6.14 ± 0.09,
"COc1cc(C=CC(=O)OCC2=CCCC3(C)OC3C3OC(=O)C(CN(C)C)C3CC2)ccc1O [Compound 6, ((1aR,7aS,8R,10aS,10bS,E)-8-((dimethylamino)methyl)-1a-methyl-9-oxo-1a,2,3,6,7,7a,8,9,10a,10b-decahydrooxireno[2′,3′:9,10]cyclodeca[1,2-b]furan-5-yl)methyl (E)-3-(4-hydroxy-3-methoxyphenyl)acrylate 2-hydroxypropane-1,2,3-tricarboxylate]",2500,comparable activities; also recorded: could significantly reduce inflammation of RAW264.7 cells induced by LPS,6.95 ± 1.09,"half-life at 10 µg/mL [4]: 120 min; water solubility (in words) [1]: outstanding water solubility; also recorded: significantly improved water solubility; also recorded: good water solubility; also recorded: more soluble than the reference compound 3; protein levels / release of pro-inflammatory cytokines (TNF-α and) [5]: could also inhibit the release of pro-inflammatory cytokines in vitro; survival rate [6]: did not reverse the survival rate; acute lung injury / lung pathology (H&E: inflammatory cell infiltration, edema, alveolar structure) ([6]; 10 mg/kg): reduced inflammatory cell infiltration and edema in lung tissue of mice, and improved alveolar structure; also recorded: ameliorated inflammatory cell infiltration and edema in lung tissue; also recorded: could significantly decrease the acute lung injury induced by bleomycin; body weight loss ([6]; 10 mg/kg): prevented the weight loss significantly; decline in cytotoxic effect compared to parent compound 3 (RAW264.7 cells; RAW264.7 cell line, versus compound 3): 2 fold"

# Continued, in another order:
solubility [1] [µg/mL],Compound,"gene expression of pro-inflammatory cytokines (IL-1β, IL-6, iNOS) [2]","IC50 (RAW264.7 cells; Mus musculus, RAW264.7, 24 h) [µM]",further results
< 10,"COc1cc(C=CC(=O)NCC2=CCCC3(C)OC3C3OC(=O)C(CN(C)C)C3CC2)ccc1O [Compound 4, (E)-N-(((1aR,7aS,8R,10aS,10bS,E)-8-((dimethylamino)methyl)-1a-methyl-9-oxo-1a,2,3,6,7,7a,8,9,10a,10b-decahydrooxireno[2′,3′:9,10]cyclodeca[1,2-b]furan-5-yl)methyl)-3-(4-hydroxy-3-methoxyphenyl)acrylamide]",neither the amide derivative of FA-PTL hybrid 4 or 5 (the prodrug of 2 containing citric acid) showed anti-inflammation activities,38.4 ± 1.14,melting point: 132 to 134 °C
50,"C=C1C(=O)O[C@H]2[C@H]1CC/C(C)=C/CC[C@@]1(C)O[C@@H]21 [PTL, Parthenolide, reference compound]",,5.35 ± 0.06,
< 10,"C=C1C(=O)OC2C1CCC(COC(=O)C=Cc1ccc(O)c(OC)c1)=CCCC1(C)OC21 [Compound 3, ((1aR,7aS,10aS,10bS,E)-1a-methyl-8-methylene-9-oxo-1a,2,3,6,7,7a,8,9,10a,10b-decahydrooxireno[2′,3′:9,10]cyclodeca[1,2-b]furan-5-yl)methyl (E)-3-(4-hydroxy-3-methoxyphenyl)acrylate]","reduce the gene expression levels of IL-1β, IL-6 and iNOS significantly; also recorded: comparable activities",3.04 ± 0.08,melting point: 96 to 98 °C
2500,"COc1cc(/C=C/C(=O)O[C@]2(C)CCC3=C(C)CC[C@@H]4[C@H](OC(=O)[C@H]4CN(C)C)[C@H]32)ccc1O.O=C(O)CC(O)(CC(=O)O)C(=O)O [Compound 5, (3R,3aS,9R,9aS,9bS)-3-((dimethylamino)methyl)-6,9-dimethyl-2-oxo-2,3,3a,4,5,7,8,9,9a,9b-decahydroazuleno[4,5-b]furan-9-yl (E)-3-(4-hydroxy-3-methoxyphenyl)acrylate 2-hydroxypropane-1,2,3-tricarboxylate]",neither the amide derivative of FA-PTL hybrid 4 or 5 (the prodrug of 2 containing citric acid) showed anti-inflammation activities,28.8 ± 0.21,water solubility (in words) [1]: significantly improved water solubility
50,"C=C1C(=O)O[C@H]2[C@H]1CCC(C)=C1CC[C@@](C)(O)[C@@H]12 [MCL, micheliolide, reference compound]",,9.03 ± 0.16,
